{"source": "paper doi:10.1101/2025.01.17.633618", "about": "“Systematic Determination of the Impact of Structural Edits on Peptide Accumulation into Mycobacteria” (bioRxiv, 2025)", "key": {"Serum stability assay": {"test": "Serum stability assay", "assay_type": "in vitro ADME", "conditions": "mouse serum, 37 °C, 1.0 mM peptide; time points 0, 15, 30, 60 min; RP-HPLC (C8), AUC normalized to internal standard Fmoc-L-phenylalanine", "procedure": "was added to the system. The systems were prepared using the CHARMM scripts provided by CHARMM-GUI.4 The CHARMM36m force field5 was employed for the MD simulations. After energy minimization and 500 ps equilibration, a 100 ns production run was performed. All production MD simulations were performed for the NPT ensemble at 303.15 K and 1 atm using NAMD3. Long-range electrostatic interactions were treated using the particle mesh Ewald (PME) method 6 while Lennard-Jones (LJ) interactions were managed with a force-based switching function applied between 10 Å and 12 Å. […] Hydrogen bonds between different residues within the same peptide were analyzed using the last 50 ns of the simulation.\nSerum stability assay. Time course degradation in mouse serum was evaluated for peptides Lin0, Cyc0, Nmet0 and Nmet9. […]\nThe samples were then centrifuged at 21,000×g for 5 min. […] 110 μL of the filtrate was then analyzed using Phenomenex Luna 5 µm C8(2) on RP-HPLC; gradient elution in H2O/CH3CN with 0.1% TFA at 1 mL/min. […]\nMinimum inhibitory concentration (MIC) assay. […] MIC values were determined both visually and readings of OD (wells OD < 0.1) from a Biotek Synergy H1 microplate reader at 600 nm."}, "[1]": {"tested_on": "Mycobacterium smegmatis strain mc2155 (Msm)"}}, "note": "Like-named read-outs stand apart in the source and are kept apart here. Bridge positions count the residues as written; N and C are the ends. Square brackets hold non-standard residues; d marks the D form. Peptide text beside a SMILES is read from it. * marks the point of attachment. Lys(N3) = [N-]=[N+]=NCCCC[C@H](N)C(=O)O; Azidoacetyl = [N-]=[N+]=NCC(=O)*; NMeF = CN[C@@H](Cc1ccccc1)C(=O)O; NMeL = CN[C@@H](CC(C)C)C(=O)O", "data": [{"smiles": "CC(=O)N[C@@H](CCCCN=[N+]=[N-])C(=O)N[C@@H](CC(C)C)C(=O)N[C@@H](CO)C(=O)N[C@@H](CCCCN)C(=O)N[C@@H](CO)C(=O)N[C@@H](Cc1ccccc1)C(N)=O", "note": "[Lin0] (Ac-[Lys(N3)]LSKSF-NH2)", "values": [{"measurement": "time to full degradation in serum", "setting": "Serum stability assay", "value": "≤ 1", "unit": "h"}]}, {"smiles": "CC(C)C[C@H](NC(=O)[C@H](CCCCN)NC(=O)CN=[N+]=[N-])C(=O)N[C@@H](CCCCN)C(=O)N(C)[C@@H](CC(C)C)C(=O)N(C)[C@@H](Cc1ccccc1)C(N)=O", "note": "[Nmet2] (Azidoacetyl-KLK[NMeL][NMeF]-NH2)", "values": [{"measurement": "apparent accumulation across the mycomembrane in Msm", "setting": "[1]", "value": "increase was even more pronounced"}]}, {"smiles": "CC(C)C[C@@H]1NC(=O)[C@H](CCCCN=[N+]=[N-])NC(=O)CSC[C@@H](C(=O)N[C@@H](Cc2ccccc2)C(N)=O)NC(=O)[C@H](CCCCN)NC(=O)[C@H](CO)NC1=O", "note": "[Cyc0] ({CH2CO}-[Lys(N3)]LSKCF-NH2; thioether N-5)", "values": [{"measurement": "apparent accumulation across the mycomembrane in Msm", "setting": "[1]; PAC-MAN, 50 μM compound, 2 h, 37 °C, chase 50 μM Fl-az 1 h, flow cytometry, mean ± SD n = 3", "value": "better accumulation than any other member of this macrocyclic sub-library"}]}]}
